Where two headings read alike, the source gives them in different places.
Columns and labels:
Assay type in all cases: cell-based
GLP-1R [1] = target: T1, GLP-1R (Homo sapiens, UniProt P43220); assay: HitHunter cAMP assay (GLP-1R); details: cAMP; for Emax: read-out: (Emax) GLP-1R
Outline: (§1)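 cAMP, luminescence read: agonist 22-pt 2× dilution in DMSO, duplicate, 30 min RT on 10,000 cells/well in 1×HBSS/10 mM HEPES/625 μM IBMX/0.2% BSA; anti-cAMP reagent 1 h RT dark, then O/N RT dark before read.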

GIP-R = target: T2, GIP-R (Homo sapiens, UniProt P48546); assay: HitHunter cAMP assay (GIP-R); details: cAMP; for Emax: read-out: (Emax) GIP-R
T2 sequence (P48546 22-466): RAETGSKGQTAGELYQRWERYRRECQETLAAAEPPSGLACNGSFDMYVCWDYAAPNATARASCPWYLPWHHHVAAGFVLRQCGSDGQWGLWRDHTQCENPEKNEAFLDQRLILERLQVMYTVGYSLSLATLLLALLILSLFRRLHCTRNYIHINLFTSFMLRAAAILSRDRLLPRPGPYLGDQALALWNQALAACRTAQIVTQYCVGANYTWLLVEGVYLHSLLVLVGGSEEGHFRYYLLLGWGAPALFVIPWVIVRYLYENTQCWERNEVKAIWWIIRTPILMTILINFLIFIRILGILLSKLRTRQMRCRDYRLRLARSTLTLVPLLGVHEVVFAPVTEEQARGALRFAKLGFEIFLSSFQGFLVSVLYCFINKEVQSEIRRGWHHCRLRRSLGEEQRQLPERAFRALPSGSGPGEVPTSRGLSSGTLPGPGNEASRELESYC
Outline: as §1

GLP-1R [2] = target: T1, GLP-1R; assay: PathHunter β-arrestin assay
Outline: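 Luminescence read-out of β-arrestin recruitment (enzyme-fragment complementation detection, 3 h at room temperature in the dark) after 90 min agonist stimulation at 37 °C. Agonists tested as 22-point 2× serial dilutions in duplicate, in medium containing 0.2% BSA.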

[3] = Table 3A, read-out: EC50 GLP-1R/nM
[4] = Table 3A, read-out: EC50 GIP-R/nM
[5] = PathHunter β-arrestin assay, read-out: β-arrestin activity EC50

T1 sequence (P43220 24-463): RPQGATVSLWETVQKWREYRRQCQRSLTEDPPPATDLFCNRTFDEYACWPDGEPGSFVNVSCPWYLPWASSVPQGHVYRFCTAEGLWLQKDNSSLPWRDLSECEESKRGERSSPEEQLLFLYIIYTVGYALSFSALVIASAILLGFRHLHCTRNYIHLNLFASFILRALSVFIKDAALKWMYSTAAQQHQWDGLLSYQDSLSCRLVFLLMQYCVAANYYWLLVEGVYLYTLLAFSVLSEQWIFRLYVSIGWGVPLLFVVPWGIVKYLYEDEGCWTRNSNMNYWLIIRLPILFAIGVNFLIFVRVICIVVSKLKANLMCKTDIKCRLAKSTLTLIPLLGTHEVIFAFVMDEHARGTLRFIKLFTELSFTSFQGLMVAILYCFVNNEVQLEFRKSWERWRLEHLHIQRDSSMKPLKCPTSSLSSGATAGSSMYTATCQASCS

| SMILES | EC50 (GLP-1R [1]; EC50 GLP-1R/nM, Table 3) [nM] | EC50 (GLP-1R [1]; EC50 GLP-1R/nM, Table 3A) [nM] | Emax (GLP-1R [1]; Table 3) [%] | Emax (GLP-1R [1]; Table 3A) [%] | EC50 (GIP-R; EC50 GIP-R/nM, Table 3) [nM] | EC50 (GIP-R; EC50 GIP-R/nM, Table 3A) [nM] | Emax (GIP-R; Table 3) [%] | Emax (GIP-R; Table 3A) [%] | EC50 (GLP-1R [2]) [nM] | EC50 (GLP-1R [1]; read-out: EC50 GLP-1R/nM, Table 3) [nM] | EC50 (GLP-1R [1]; read-out: EC50 GLP-1R/nM, Table 3A) [nM] | EC50 (GIP-R; read-out: EC50 GIP-R/nM, Table 3) [nM] | EC50 (GIP-R; read-out: EC50 GIP-R/nM, Table 3A) [nM] | EC50 (GLP-1R [1]; [3]) [nM] | EC50 (GIP-R; [4]) [nM] | EC50 (GLP-1R [2]; [5]) [nM] | EC50 (GLP-1R [1]; Table 3, read-out: EC50 GLP-1R/nM) [nM] | EC50 (GIP-R; Table 3, read-out: EC50 GIP-R/nM) [nM] | Emax at 1 µM (GIP-R; read-out: (Emax) GIP-R at 1 μM, Table 3, at 1 μM) [%] |
| --- | --- | --- | --- | --- | --- | --- | --- | --- | --- | --- | --- | --- | --- | --- | --- | --- | --- | --- | --- |
| CCCCCCCCCCCCCCCC(=O)N[C@@H](CCC(=O)NCCCC[C@H](NC(=O)[C@H](CO)NC(=O)[C@@H]1CCCN1C(=O)[C@@H]1CCCN1C(=O)[C@@H]1CCCN1C(=O)[C@H](C)NC(=O)CNC(=O)[C@H](CO)NC(=O)[C@H](CO)NC(=O)[C@@H]1CCCN1C(=O)CNC(=O)CNC(=O)[C@H](C)NC(=O)[C@H](CC(C)C)NC(=O)[C@H](CC(C)C)NC(=O)[C@H](Cc1c[nH]c2ccccc12)NC(=O)[C@H](CC(N)=O)NC(=O)[C@@H](NC(=O)[C@H](Cc1ccccc1)NC(=O)[C@H](CCC(=O)O)NC(=O)C(C)(C)NC(=O)[C@H](C)NC(=O)[C@H](C)NC(=O)[C@H](CCC(N)=O)NC(=O)[C@H](CCCCN)NC(=O)[C@H](CC(=O)O)NC(=O)[C@H](CC(C)C)NC(=O)[C@H](Cc1ccc(O)cc1)NC(=O)[C@@H](NC(=O)[C@H](CO)NC(=O)[C@H](Cc1ccc(O)cc1)NC(=O)[C@H](CC(=O)O)NC(=O)[C@H](CO)NC(=O)[C@@H](NC(=O)[C@H](Cc1ccccc1)NC(=O)[C@@H](NC(=O)CNC(=O)[C@H](CCC(=O)O)NC(=O)CSCC(=O)NCCN1C(=O)CC[C@@H](C)C1=O)[C@@H](C)O)[C@@H](C)O)[C@@H](C)CC)C(C)C)C(N)=O)C(=O)O [Compound 85] | 1 to 10 | 1 to 10 | 103 | 103 | 0.1 to 1 | 0.1 to 1 | 83 | 83 | > 1000 |  |  |  |  |  |  |  |  |  |  |
| CCCCCCCCCCCCCCCC(=O)N[C@@H](CCC(=O)NCCCC[C@H](NC(=O)[C@H](CO)NC(=O)[C@@H]1CCCN1C(=O)[C@@H]1CCCN1C(=O)[C@@H]1CCCN1C(=O)[C@H](C)NC(=O)CNC(=O)[C@H](CO)NC(=O)[C@H](CO)NC(=O)[C@@H]1CCCN1C(=O)CNC(=O)CNC(=O)[C@H](C)NC(=O)[C@H](CC(C)C)NC(=O)[C@H](CC(C)C)NC(=O)[C@H](Cc1c[nH]c2ccccc12)NC(=O)[C@H](CC(N)=O)NC(=O)[C@@H](NC(=O)[C@H](Cc1ccccc1)NC(=O)[C@H](CCC(=O)O)NC(=O)C(C)(C)NC(=O)[C@H](C)NC(=O)[C@H](C)NC(=O)[C@H](CCC(N)=O)NC(=O)[C@H](CCCCN)NC(=O)[C@H](CC(=O)O)NC(=O)[C@H](CC(C)C)NC(=O)[C@H](Cc1ccc(O)cc1)NC(=O)[C@@H](NC(=O)[C@H](CO)NC(=O)[C@H](Cc1ccc(O)cc1)NC(=O)[C@H](CC(=O)O)NC(=O)[C@H](CO)NC(=O)[C@@H](NC(=O)[C@H](Cc1ccccc1)NC(=O)[C@@H](NC(=O)CNC(=O)[C@H](CCC(=O)O)NC(=O)CSCC(=O)NCCN1C(=O)CC[C@H]1CO)[C@@H](C)O)[C@@H](C)O)[C@@H](C)CC)C(C)C)C(N)=O)C(=O)O [Compound 44] | 0.1 to 1 | 0.1 to 1 | 97 to 99 | 97 to 99 | 1 to 10 | 1 to 10 | 54 to 67 | 54 to 67 | > 1000 |  |  |  |  |  |  |  |  |  |  |
| CCCCCCCCCCCCCCCC(=O)N[C@@H](CCC(=O)NCCCC[C@H](NC(=O)[C@H](CO)NC(=O)[C@@H]1CCCN1C(=O)[C@@H]1CCCN1C(=O)[C@@H]1CCCN1C(=O)[C@H](C)NC(=O)CNC(=O)[C@H](CO)NC(=O)[C@H](CO)NC(=O)[C@@H]1CCCN1C(=O)CNC(=O)CNC(=O)[C@H](C)NC(=O)[C@H](CC(C)C)NC(=O)[C@H](CC(C)C)NC(=O)[C@H](Cc1c[nH]c2ccccc12)NC(=O)[C@H](CC(N)=O)NC(=O)[C@@H](NC(=O)[C@H](Cc1ccccc1)NC(=O)[C@H](CCC(=O)O)NC(=O)C(C)(C)NC(=O)[C@H](C)NC(=O)[C@H](C)NC(=O)[C@H](CCC(N)=O)NC(=O)[C@H](CCCCN)NC(=O)[C@H](CC(=O)O)NC(=O)[C@H](CC(C)C)NC(=O)[C@H](Cc1ccc(O)cc1)NC(=O)[C@@H](NC(=O)[C@H](CO)NC(=O)[C@H](Cc1ccc(O)cc1)NC(=O)[C@H](CC(=O)O)NC(=O)[C@H](CO)NC(=O)[C@@H](NC(=O)[C@H](Cc1ccccc1)NC(=O)[C@@H](NC(=O)CNC(=O)[C@H](CCC(=O)O)NC(=O)CSCC(=O)NCCN1C(=O)CC[C@@H]1CO)[C@@H](C)O)[C@@H](C)O)[C@@H](C)CC)C(C)C)C(N)=O)C(=O)O [Compound 43] | 0.1 to 1 | 0.1 to 1 | 93 to 97 | 93 to 97 | 1 to 10 | 1 to 10 | 60 to 73 | 60 to 73 | > 1000 |  |  |  |  |  |  |  |  |  |  |
| CC[C@H](C)[C@H](NC(=O)[C@H](CO)NC(=O)[C@H](Cc1ccc(O)cc1)NC(=O)[C@H](CC(=O)O)NC(=O)[C@H](CO)NC(=O)[C@@H](NC(=O)[C@H](Cc1ccccc1)NC(=O)[C@@H](NC(=O)CNC(=O)[C@H](CCC(=O)O)NC(=O)CSCC(=O)NCCN1C(=O)c2ccncc2C1=O)[C@@H](C)O)[C@@H](C)O)C(=O)N[C@@H](Cc1ccc(O)cc1)C(=O)N[C@@H](CC(C)C)C(=O)N[C@@H](CC(=O)O)C(=O)N[C@@H](CCCCN)C(=O)N[C@@H](CCC(N)=O)C(=O)N[C@@H](C)C(=O)N[C@@H](C)C(=O)NC(C)(C)C(=O)N[C@@H](CCC(=O)O)C(=O)N[C@@H](Cc1ccccc1)C(=O)N[C@H](C(=O)N[C@@H](CC(N)=O)C(=O)N[C@@H](Cc1c[nH]c2ccccc12)C(=O)N[C@@H](CC(C)C)C(=O)N[C@@H](CC(C)C)C(=O)N[C@@H](C)C(=O)NCC(=O)NCC(=O)N1CCC[C@H]1C(=O)N[C@@H](CO)C(=O)N[C@@H](CO)C(=O)NCC(=O)N[C@@H](C)C(=O)N1CCC[C@H]1C(=O)N1CCC[C@H]1C(=O)N1CCC[C@H]1C(=O)N[C@@H](CO)C(=O)N[C@@H](CCCCN)C(N)=O)C(C)C [Compound 157] |  |  | 93 to 95 | 93 to 95 |  |  | 103 to 105 | 103 to 105 | > 1000 | 1 to 100 | 1 to 100 | 0.1 to 10 | 0.1 to 10 |  |  |  |  |  |  |
| CCCCCCCCCCCCCCCC(=O)N[C@@H](CCC(=O)NCCCC[C@H](NC(=O)[C@H](CO)NC(=O)[C@@H]1CCCN1C(=O)[C@@H]1CCCN1C(=O)[C@@H]1CCCN1C(=O)[C@H](C)NC(=O)CNC(=O)[C@H](CO)NC(=O)[C@H](CO)NC(=O)[C@@H]1CCCN1C(=O)CNC(=O)CNC(=O)[C@H](C)NC(=O)[C@H](CC(C)C)NC(=O)[C@H](CC(C)C)NC(=O)[C@H](Cc1c[nH]c2ccccc12)NC(=O)[C@H](CC(N)=O)NC(=O)[C@@H](NC(=O)[C@H](Cc1ccccc1)NC(=O)[C@H](CCC(=O)O)NC(=O)C(C)(C)NC(=O)[C@H](C)NC(=O)[C@H](C)NC(=O)[C@H](CCC(N)=O)NC(=O)[C@H](CCCCN)NC(=O)[C@H](CC(=O)O)NC(=O)[C@H](CC(C)C)NC(=O)[C@H](Cc1ccc(O)cc1)NC(=O)[C@@H](NC(=O)[C@H](CO)NC(=O)[C@H](Cc1ccc(O)cc1)NC(=O)[C@H](CC(=O)O)NC(=O)[C@H](CO)NC(=O)[C@@H](NC(=O)[C@H](Cc1ccccc1)NC(=O)[C@@H](NC(=O)CNC(=O)[C@H](CCC(=O)O)NC(=O)CCNC(=O)CCN1CCCC1=O)[C@@H](C)O)[C@@H](C)O)[C@@H](C)CC)C(C)C)C(N)=O)C(=O)O [Compound 265] |  |  |  | 100 |  |  |  | 80 |  |  |  |  |  | < 0.1 | 0.1 to 1 | < 10 |  |  |  |
| CC[C@H](C)[C@H](NC(=O)[C@H](CO)NC(=O)[C@H](Cc1ccc(O)cc1)NC(=O)[C@H](CC(=O)O)NC(=O)[C@H](CO)NC(=O)[C@@H](NC(=O)[C@H](Cc1ccccc1)NC(=O)[C@@H](NC(=O)CNC(=O)[C@H](CCC(=O)O)NC(=O)[C@H]1CC[C@H](C(=O)NCCN2C(=O)CSC2=O)CC1)[C@@H](C)O)[C@@H](C)O)C(=O)N[C@@H](Cc1ccc(O)cc1)C(=O)N[C@@H](CC(C)C)C(=O)N[C@@H](CC(=O)O)C(=O)N[C@@H](CCCCN)C(=O)N[C@@H](CCC(N)=O)C(=O)N[C@@H](C)C(=O)N[C@@H](C)C(=O)NC(C)(C)C(=O)N[C@@H](CCC(=O)O)C(=O)N[C@@H](Cc1ccccc1)C(=O)N[C@H](C(=O)N[C@@H](CC(N)=O)C(=O)N[C@@H](Cc1c[nH]c2ccccc12)C(=O)N[C@@H](CC(C)C)C(=O)N[C@@H](CC(C)C)C(=O)N[C@@H](C)C(=O)NCC(=O)NCC(=O)N1CCC[C@H]1C(=O)N[C@@H](CO)C(=O)N[C@@H](CO)C(=O)NCC(=O)N[C@@H](C)C(=O)N1CCC[C@H]1C(=O)N1CCC[C@H]1C(=O)N1CCC[C@H]1C(=O)N[C@@H](CO)C(=O)N[C@@H](CCCCN)C(N)=O)C(C)C [Compound 183] |  |  | 95 | 95 |  |  |  |  |  |  |  |  |  | 10 to 100 | > 1000 | > 1000 | 10 to 100 | > 1000 | 1.4 |

Source: patent US20260176320A1, “MODULATORS OF G-PROTEIN COUPLED RECEPTORS” (priority 2018, published 2026)
